The test system of one experiment is E. coli ATCC 25922. In words: MIC, broth microdilution. In kind it is cell-based, Escherichia coli. Particulars: ATCC strain; for MIC E. coli 25922: 24 h. The protocol:
(§1) Antimicrobial activity of the compounds was studied by determination of minimal inhibitory concentrations (MIC) according to the NCCLS guidelines M7-A2 using the microbroth dilution methods. The bacteria strains were grown on trypticase soy agar (Becton Dickinson) at 37 °C for 24 h. Inocula were prepared in TCE (tryptone 0.1%, […], wt/vol) by ajusting the turbidity at 623 nm to obtain 1–3 10^5 CFU/mL.
(§2) Antimicrobial activities of the compounds were determined by using a broth microdilution method performed in sterile 96-well microplates. All compounds were solubilized in water at a concentration of 10 mM and were transferred to each microplate well in order to obtain a two-fold serial dilution in 100 µL of broth and 100 µL of inoculum containing 2–6 10^5 CFU of each bacterium were added to each well. Some wells were reserved for positive controls and inoculum viability.
In general terms: Broth dilution looks for growth in wells or tubes with falling amounts of substance.

The next experiment concerns E. coli 1956. The experiment in a line: MIC, broth microdilution. Type of experiment: cell-based, Escherichia coli. As to the method: as §1, §2
A further experiment relates to S. aureus ATCC 25923. The experiment in a line: MIC, broth microdilution. Type of experiment: cell-based, Staphylococcus aureus. Particulars: Staphylococcus aureus, ATCC25923, 24 h, ATCC strain. As to the method: as §1, §2
The subject of a further experiment is S. aureus 340. In words: MIC, broth microdilution. In kind it is cell-based, Staphylococcus aureus. Particulars: for MIC: Staphylococcus aureus, 340, 24 h. The protocol: as §1, §2
For the next experiment, the system named is S. intermedius 1051997. In words: MIC, broth microdilution. Type of experiment: cell-based, Staphylococcus intermedius. Conditions: for MIC: Staphylococcus intermedius, 1051997, 24 h, 24 h. As to the method:
as §1, §2

The subject of the next experiment is E. faecalis ATCC29212. The experiment in a line: MIC, broth microdilution. In kind it is cell-based, Enterococccus faecalis. Conditions: Enterococcus faecalis, ATCC29212, 24 h, ATCC strain, read-out: MIC E. faecalis 29212. As to the method: as §1, §2
In a further experiment the test system is P. aeruginosa 1051575. In words: MIC, broth microdilution. Conditions: 24 h; for MIC: Pseudomonas aeruginosa, 1051575, 24 h. Type of experiment: cell-based, Pseudomonas aeruginosa. As to the method:
as §1, §2

In the next experiment the test system is P. aeruginosa ATCC 27853. The experiment in a line: MIC, broth microdilution. In kind it is cell-based, Pseudomonas aeruginosa. Particulars: ATCC strain; for MIC: Pseudomonas aeruginosa, ATCC27853, 24 h. As to the method: as §1, §2
Experiment [1] relates to Chinese hamster Ovary cells (CHO-K1). The experiment in a line: Cytotoxicity assay (WST-1 / Neutral Red). Conditions: Cricetulus griseus, 24 h, 24-h incubation. In kind it is cell-based. The protocol: The cytotoxic activities of compounds were assessed on Chinese hamster Ovary cells (CHO-K1) provided from ATCC-LGC Standards Sarl (Molsheim, France). Cells were maintained in Mc Coy’s 5A (CHO) medium supplemented with 10% bovine calf serum, 2 mM glutamine, and 100 U mL^−1/10 µg mL^−1 penicillin/streptomycin mixtures. For the cytotoxicity experiments, they were seeded in 96-well plates and incubated at 37 °C in humidified atmosphere containing 5% CO2 overnight, then concentrations of compounds were incorporated in triplicate cultures. After a 24-h incubation period at 37 °C, cells were submitted to three successive washes in phosphate buffer saline (PBS) and cell viability was evaluated by two different vital dyes: • i. A first set of cell cultures was incubated in PBS containing 10% WST-1 for 30 min at 37 °C, 5% CO2. Cell viability was evaluated by the assessment of WST-1 absorbance at 450 nm in a microplate spectrophotometer. • ii. A second set of cell cultures was placed into Neutral Red medium (50 μg mL^−1 Neutral Red in complete medium) and incubated for 3 h at 37 °C, 5% CO2. Then the Neutral Red medium was removed and the distaining solution (50% ethanol, 1% acetic acid, 49% distilled water; 50 µL per well) was added into the wells. The plates were shaken for 15–20 min at room temperature in the dark. Cell viability was evaluated by the assessment of absorbance at 540 nm in a microplate spectrophotometer.
Results were expressed as percentages of cell viability about the control (culture medium-only), which corresponded to 100% cell viability. Dose-response curves were calculated by non-linear regression analysis with TableCurve 2D software (V 5.0.1) (Systat Software Inc., San Jose, CA, USA). The Inhibitory Concentration 50% (IC50) was defined as the concentration of compounds that induced a 50% decrease of viable cells.
For orientation: Tetrazolium assays rely on reduction of a dye to a coloured formazan, in cell work by metabolically active cells.

In brackets after ≈: the same amount, converted by molar mass.

Results on 12 molecules are retold here after publication PMC12693182, “Synthesis and QSAR Studies of Claramine Derivatives, a New Class of Broad-Spectrum Antimicrobial Agents” (Molecules, 2025).

As usually defined, the MIC is the lowest concentration found to suppress growth. A word on the IC50: it is the concentration that gives 50% inhibition. A lower IC50 goes with inhibition by little substance.

As to `CC(C)OC(=O)CCC(C)C1CCC2C3C(O)CC4CC(NCCCNCCCN)CCC4(C)C3CCC12C` (centres unmarked) [Claramine C19], the MIC with E. coli ATCC 25922 (Escherichia coli, ATCC25922, 24 h) turned out to be 14 mg/L (≈ 25.6 µM); with E. coli 1956 (Escherichia coli, 1956, 24 h), 14 mg/L (≈ 25.6 µM); in the experiment with S. aureus ATCC 25923 it was 7 mg/L (≈ 12.8 µM); against S. intermedius 1051997 it was 2 mg/L (≈ 3.65 µM); in the experiment on E. faecalis ATCC29212, 4 mg/L (≈ 7.3 µM); against P. aeruginosa ATCC 27853, 28 mg/L (≈ 51.1 µM). In addition, the “MIC S. aureus 340” value against S. aureus 340 (24 h) is 2 mg/L (≈ 3.65 µM). The “Therapeutic Ratio (TR)” value in the experiment on S. intermedius 1051997 (IC50 (CHO)/MIC, S. intermedius) was 65–114. Besides, the “MIC P. aeruginosa 1051575” value with P. aeruginosa 1051575 was determined as 14 mg/L (≈ 25.6 µM).

In the case of `CC(C)OC(=O)CCC(C)C1CCC2C3CCC4CC(NCCCNCCCN)CCC4(C)C3CC(O)C12C` (centres unmarked) [Claramine A04], the MIC was found to be 3 mg/L (≈ 5.48 µM) with S. aureus 340 and 14 mg/L (≈ 25.6 µM) in the experiment with P. aeruginosa 1051575. In [1], this molecule had a 50% inhibitory concentration (IC50) of 57 mg/L (≈ 104 µM).

With `CCCCOC(=O)CCC(C)C1CCC2C3CCC4CC(NCCCNCCCCNCCCN)CCC4(C)C3CC(O)C12C` (centres unmarked) [Claramine A21], the half-maximal inhibitory concentration (IC50) in experiment [1] is 4 mg/L (≈ 6.32 µM).

For `CC(C)OC(=O)CCC(C)C1CCC2C3CCC4CC(NCCCN5CCN(CCCN)CC5)CCC4(C)C3CC(O)C12C` (centres unmarked) [Claramine A26], the minimum inhibitory concentration (MIC) in the experiment with S. aureus 340 and against P. aeruginosa 1051575 was 62 mg/L (≈ 100 µM) in each case. Besides, the midpoint of inhibition in experiment [1], the IC50, lay at 160 mg/L (≈ 259 µM).

In the case of `CC(CCC(=O)OCC(F)(F)F)C1CCC2C3CCC4CC(NCCCNCCCCNCCCN)CCC4(C)C3CC(O)C12C` (centres unmarked) [Claramine A24], 76 mg/L (≈ 115 µM) corresponded to half-maximal inhibition in [1] (IC50).

As for `CC(C)OC(=O)CCC(C)C1CCC2C3C(O)CC4CC(NCCCN5CCN(CCCN)CC5)CCC4(C)C3CC(O)C12C` (centres unmarked) [Claramine B16], the MIC against S. aureus 340 and in the experiment with P. aeruginosa 1051575 was 16 mg/L (≈ 25.3 µM) in each case. This molecule gave an IC50 in [1] of 260 mg/L (≈ 411 µM).

With `CC(C)OC(=O)CCC(C)C1CCC2C3CCC4CC(NCCN(CCN)CCN)CCC4(C)C3CC(O)C12C` (centres unmarked) [Claramine A29], the MIC against S. aureus 340 stood at 14 mg/L (≈ 24.9 µM); against P. aeruginosa 1051575, 56 mg/L (≈ 99.5 µM). The molecule also came in with an IC50 in experiment [1] of 141 mg/L (≈ 250 µM).

As to `CC(C)OC(=O)CCC(C)C1CCC2C3C(O)CC4CC(NCCN(CCN)CCN)CCC4(C)C3CCC12C` (centres unmarked) [Claramine C25], the MIC was found to be 14 mg/L (≈ 24.9 µM) against S. aureus 340 and 28 mg/L (≈ 49.7 µM) in the experiment with P. aeruginosa 1051575. Further, in experiment [1], the IC50 worked out at 141 mg/L (≈ 250 µM).

In the case of `COC(=O)CCC(C)C1CCC2C3C(O)CC4CC(NCCCNCCCN)CCC4(C)C3CCC12C` (centres unmarked) [Claramine C04], the MIC with S. aureus 340 stood at 7 mg/L (≈ 13.5 µM); in the experiment with P. aeruginosa 1051575, 26 mg/L (≈ 50 µM). Also, half-maximal inhibition in [1] (IC50) required 68 mg/L (≈ 131 µM).

For `COC(=O)CCC(C)C1CCC2C3C(O)CC4CC(NCCCNCCCNCCCN)CCC4(C)C3CCC12C` (centres unmarked) [Claramine C02], in the experiment on E. coli ATCC 25922, the “MIC E. coli 25922” value came to 15 mg/L (≈ 26 µM). The MIC stood at 4 mg/L (≈ 6.93 µM) in the experiment with S. aureus ATCC 25923; 4 mg/L (≈ 6.93 µM) with S. aureus 340; 2 mg/L (≈ 3.47 µM) in the experiment on S. intermedius 1051997; 15 mg/L (≈ 26 µM) in the experiment with E. faecalis ATCC29212; 7 mg/L (≈ 12.1 µM) against P. aeruginosa 1051575; 29 mg/L (≈ 50.3 µM) against P. aeruginosa ATCC 27853. In experiment [1], this molecule showed an IC50 of 22 mg/L (≈ 38.1 µM).

Colistine [reference compound]: in the experiment with E. coli ATCC 25922, the “MIC E. coli 25922” value came out at 0.5 mg/L. Moreover, the “MIC E. coli 1956” value in the experiment with E. coli 1956 (24 h) stood at 0.5 mg/L. For the same molecule, in the experiment with P. aeruginosa 1051575, the “MIC P. aeruginosa 1051575” value came to 0.5 mg/L. Moreover, in the experiment with P. aeruginosa ATCC 27853 (24 h), the “MIC P. aeruginosa 27853” value worked out at 0.5 mg/L.

Regarding `CC(C)OC(=O)CCC(C)C1CCC2C3C(O)CC4CC(NCCN(CCN)CCN)CCC4(C)C3CC(O)C12C` (centres unmarked) [Claramine B19], the values for the MIC in the experiment with S. aureus 340 and against P. aeruginosa 1051575 were 14 mg/L (≈ 24.2 µM) and 58 mg/L (≈ 100 µM), respectively. This molecule also displayed an IC50 in [1] of 81 mg/L (≈ 140 µM).
